From patent publication US20100137313A1 (ASTRAZENECA AB, priority 2008, published 2010)

Molecular target: S. pneumoniae Topoisomerase IV ATPase (ParE) (Streptococcus pneumoniae serotype 4, UniProt Q59961)
Experiment: S. pneumoniae Topoisomerase IV ATPase inhibition
Format: biochemical
Conditions: values marked * are an average of two or more data points, read-out: % Inh (13 μM) of S. pneumoniae Topoisomerase IV ATPase
Outline: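 ParE ATPase (1.25 nM) run with 160 μM ATP and 5 μg/ml sheared salmon sperm DNA in Tris pH 8.0, Mg2+, glycerol, DTT, Brij-35. Phosphate released read by malachite green/molybdate absorbance at 650 nm. IC50 from 10 compound concentrations; DMSO (2%) as 0% and EDTA (20 μM) as 100% inhibition.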

Sequence of S. pneumoniae Topoisomerase IV ATPase (ParE) (Q59961 whole entry): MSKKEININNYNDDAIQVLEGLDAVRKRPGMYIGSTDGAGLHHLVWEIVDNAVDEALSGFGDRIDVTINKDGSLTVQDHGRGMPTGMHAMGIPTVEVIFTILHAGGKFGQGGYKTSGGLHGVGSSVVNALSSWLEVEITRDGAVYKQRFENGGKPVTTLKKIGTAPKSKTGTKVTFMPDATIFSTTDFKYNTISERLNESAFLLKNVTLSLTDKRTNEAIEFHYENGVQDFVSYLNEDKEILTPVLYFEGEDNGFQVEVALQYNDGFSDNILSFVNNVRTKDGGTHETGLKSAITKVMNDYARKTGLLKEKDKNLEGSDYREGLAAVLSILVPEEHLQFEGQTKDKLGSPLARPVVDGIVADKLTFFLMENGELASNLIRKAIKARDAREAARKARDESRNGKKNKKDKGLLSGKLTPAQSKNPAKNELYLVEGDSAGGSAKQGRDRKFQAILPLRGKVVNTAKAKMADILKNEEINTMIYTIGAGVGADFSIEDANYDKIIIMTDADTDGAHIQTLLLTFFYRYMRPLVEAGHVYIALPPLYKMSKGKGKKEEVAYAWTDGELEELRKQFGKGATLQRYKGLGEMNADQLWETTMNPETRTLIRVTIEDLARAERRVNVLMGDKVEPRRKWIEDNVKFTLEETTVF

Compound	inhibition at 13 µM
CONC(=O)c1cncc(-c2cnc(Nc3ccc(F)c(Cl)c3)nc2-n2nc(C(F)F)cc2C(F)F)c1 [Example 547, 5-{4-[3,5-bis(difluoromethyl)-1H-pyrazol-1-yl]-2-[(3-chloro-4-fluorophenyl)amino]pyrimidin-5-yl}-N-methoxypyridine-3-carboxamide]	71%
O=C(O)COc1cccc(-c2cnc(Nc3ccc(F)c(Cl)c3)nc2N2CCOCC2)c1 [Example 488, (3-{2-[(3-chloro-4-fluorophenyl)amino]-4-(morpholin-4-yl)pyrimidin-5-yl}phenoxy)acetic acid]	92%
O=C(O)c1cc(-c2cnc(Nc3ccc(F)c(Cl)c3)nc2-n2ccc(C(F)(F)F)n2)cnc1NCCN1CCOCC1 [Example 1077, 5-(2-(3-Chloro-4-fluorophenylamino)-4-(3-(trifluoromthyl)-1H-pyrazol-1-yl)pyrimidin-5-yl)-2-(2-morpholinoethylamino)nicotinic acid]	99%
CN(C)C(=O)c1cccc(-c2cnc(Nc3ccc(F)c(Cl)c3)nc2-n2ccc(C(F)(F)F)n2)c1 [Example 1148, 3-(2-(3-chloro-4-fluorophenylamino)-4-(3-(trifluoromethyl)-1H-pyrazol-1-yl)pyrimidin-5-yl)-N,N-dimethylbenzamide]	24%
O=C(O)c1cc(-c2cnc(Nc3ccc(F)c(Cl)c3)nc2-n2ccc(C(F)(F)F)n2)cnc1OCCc1ccncc1 [Example 872, 5-(2-(3-chloro-4-fluorophenylamino)-4-(3-(trifluoromethyl)-1H-pyrazol-1-yl)pyrimidin-5-yl)-2-(2-(pyridin-4-yl)ethoxy)nicotinic acid]	100%
COc1cc(Nc2ncc(-c3cnc(OC)c(C(=O)NS(=O)(=O)c4ccc(CNC(C)=O)cc4)c3)c(-n3nc(C(F)(F)F)cc3C)n2)cc(OC)c1 [Example 846, N-({4-[(acetylamino)methyl]phenyl}sulfonyl)-5-{2-[(3,5-dimethoxyphenyl)amino]-4-[5-methyl-3-(trifluoromethyl)-1H-pyrazol-1-yl]pyrimidin-5-yl}-2-methoxypyridine-3-carboxamide]	97%
O=C(O)c1cncc(-c2cnc(Nc3ccc(F)c(Cl)c3)nc2-n2nnc3ccccc32)c1 [Example 318, 5-{4-(1H-benzotriazol-1-yl)-2-[(3-chloro-4-fluorophenyl)amino]pyrimidin-5-yl}pyridine-3-carboxylic acid]	92.3%
O=C(O)c1cncc(-c2cnc(Nc3ccc(F)c(Cl)c3)nc2N2CCC(O)CC2)c1 [Example 244, 5-[2-[(3-chloro-4-fluorophenyl)amino]-4-(4-hydroxypiperidin-1-yl)pyrimidin-5-yl]pyridine-3-carboxylic acid]	76.3%
COc1ncc(-c2cnc(Nc3cc(C)ccc3F)nc2-n2nc(C(F)(F)F)cc2C)cc1C(=O)O [Example 757, 5-{2-[(2-fluoro-5-methylphenyl)amino]-4-[5-methyl-3-(trifluoromethyl)-1H-pyrazol-01-yl]pyrimidin-5-yl}-2-methoxypyridine-3-carboxylic acid]	19%
COc1cc(Cl)c(C)cc1Nc1ncc(-c2ccc(C(=O)O)s2)c(NCCCN(C)C)n1 [Example 342, 5-(2-(4-chloro-2-methoxy-5-methylphenylamino)-4-(3-(dimethylamino)propylamino)pyrimidin-5-yl) thiophene-2-carboxylic acid]	77%
CCOC(=O)c1cncc(-c2cnc(Nc3ccc(F)c(Cl)c3)nc2NCCCN(C)C)c1 [Example 5, ethyl 5-(2-(3-chloro-4-fluorophenylamino)-4-(3-(dimethylamino)propylamino)pyrimidin-5-yl) nicotinate]	104%
COc1cccc(-c2cnc(Nc3ccc(F)c(Cl)c3)nc2-n2ccc(C(F)(F)F)n2)n1 [Example 876, N-(3-chloro-4-fluorophenyl)-5-(6-methoxypyridin-2-yl)-4-(3-(trifluoromethyl)-1H-pyrazol-1-yl)pyrimidin-2-amine]	0%
COc1cc(Nc2ncc(-c3cnc(OC)c(C(=O)NS(=O)(=O)CS(C)(=O)=O)c3)c(-n3nc(C(F)(F)F)cc3C)n2)cc(OC)c1 [Example 838, 5-{2-[(3,5-dimethoxyphenyl)amino]-4-[5-methyl-3-(trifluoromethyl)-1H-pyrazol-1-yl]pyrimidin-5-yl}-2-methoxy-N-{[(methylsulfonyl)methyl]sulfonyl}pyridine-3-carboxamide]	99%
CCOC(=O)c1cncc(-c2cnc(Nc3ccc(F)c(Cl)c3)nc2NCc2cncn2C)c1 [Example 145, ethyl 5-(2-(3-chloro-4-fluorophenylamino)-4-((1-methyl-1H-imidazol-5-yl)methylamino)pyrimidin-5-yl) nicotinate]	77.4%
CCOC(=O)/C=C/c1cccc(-c2cnc(Nc3ccc(F)c(Cl)c3)nc2N2CCN(C)CC2)c1 [Example 170, (E)-ethyl 3-(3-(2-(3-chloro-4-fluorophenylamino)-4-(4-methylpiperazin-1-yl)pyrimidin-5-yl)phenyl)acrylate]	46%
O=C(O)c1cc(-c2cnc(Nc3ccc(F)c(Cl)c3)nc2-n2ccc(C(F)(F)F)n2)cnc1OCC(F)(F)F [Example 1135, 5-(2-(3-chloro-4-fluorophenylamino)-4-(3-(trifluoromethyl)-1H-pyrazol-1-yl)pyrimidin-5-yl)-2-(2,2,2-trifluoroethoxy)nicotinic acid]	100%
CONC(=O)c1cncc(-c2cnc(Nc3ccc(F)c(Cl)c3)nc2NCCc2cccnc2)c1 [Example 476, 5-(2-[(3-chloro-4-fluorophenyl)amino]-4-{[2-(pyridin-3-yl)ethyl]amino}pyrimidin-5-yl)-N-methoxypyridine-3-carboxamide]	100%
O=S(=O)(NCCO)c1cccc(-c2cnc(Nc3ccc(F)c(Cl)c3)nc2-n2ccc(C(F)(F)F)n2)c1 [Example 997, 3-(2-(3-Chloro-4-fluorophenylamino)-4-(3-(trifluoromethyl)-1H-pyrazol-1-yl)pyrimidin-5-yl)-N-(2-hydroxyethyl)benzenesulfonamide]	100%
COc1cc(Nc2ncc(-c3cncc(C(=O)NCCS(C)(=O)=O)c3)c(-n3ccc(C(F)(F)F)n3)n2)cc(OC)c1 [Example 684, 5-{2-[(3,5-dimethoxyphenyl)amino]-4-[3-(trifluoromethyl)-1H-pyrazol-1-yl]pyrimidin-5-yl}-N-[2-(methylsulfonyl)ethyl]pyridine-3-carboxamide]	100%
CC(=O)NCCNc1nc(Nc2ccc(F)c(Cl)c2)ncc1-c1cncc(C(=O)O)c1 [Example 221, 5-[4-(2-Acetylamino-ethylamino)-2-(3-chloro-4-fluoro-phenylamino)-pyrimidin-5-yl]-nicotinic acid]	81%
O=C(O)/C=C/c1cccc(-c2cnc(Nc3ccc(F)c(Cl)c3)nc2-n2cnc(Cl)c2Cl)c1 [Example 331, (2E)-3-(3-{2-[(3-chloro-4-fluorophenyl)amino]-4-(4,5-dichloro-1H-imidazol-1-yl)pyrimidin-5-yl}phenyl)prop-2-enoic acid]	59.8%
COc1ncc(-c2cnc(Nc3ccc(F)c(Cl)c3)nc2-n2ccc(C(F)(F)F)n2)cc1C(=O)O [Example 1066, 5-(2-(3-chloro-4-fluorophenylamino)-4-(3-(trifluoromethyl)-1H-pyrazol-1-yl)pyrimidin-5-yl)-2-methoxynicotinic acid]	100%
